From article PMC3214022, “Plasmodium falciparum Parasites Are Killed by a Transition State Analogue of Purine Nucleoside Phosphorylase in a Primate Animal Model” (PLoS ONE, 2011)
“And” between values parts separate entries of the source, which are not always exact repeats. Equal values may be shown once.

Assay: Weights, CBC and blood chemistry, Table S1 sheet PD-1 (efficacy study in P. falciparum-infected Aotus)
Format: in vivo, Aotus lemurinus lemurinus
Procedure: Laboratory bred Aotus lemurinus lemurinus monkeys (0.75–0.89 kg) were maintained as described. […] Blood samples were collected before the treatment started (t = 0), 0.05 h, 0.5 h, 1 h, 2 h, 6 h, 24 h, 48 h, and 6, 12 and 18 days after the first dose from each monkey and processed as described below. Pharmacokinetic parameters were calculated using PKSolver. For efficacy studies, Aotus monkeys were inoculated intravenously with 5×10^6 parasites of the FVO strain of P. falciparum in an approved treatment protocol. […] Parasitaemia was determined by Giemsa-stained thick blood smears prepared daily from the marginal ear vein [41]. Blood samples were collected from each monkey and transferred to tubes containing lithium heparin, centrifuged and both plasma and blood cells were frozen at −80 °C until analysis. Animals received a physical examination and blood chemistry profiles were monitored after treatment as described previously. Any monkey not responding appropriately to treatment was cured of its infection with mefloquine (40 mg kg^−1). […] The day of clearance is defined as the first of three consecutive days in which the thick blood films are parasite negative. The day of recrudescence is the first of three consecutive days of positive thick blood films after a period of clearance. Suppression is defined as a transient decrease in the parasite count post-treatment without clearance.

[1] = IV 10 mg/kg once a day/3 days, day -2, 10 mg/kg
[2] = oral 50 mg/kg once a day/3 days, day 9, 50 mg/kg
[3] = oral 50 mg/kg once a day/3 days, day 12, 50 mg/kg
[4] = oral 50 mg/kg once a day/3 days, day 19, 50 mg/kg
[5] = oral 50 mg/kg once a day/3 days, day 25, 50 mg/kg
[6] = oral 50 mg/kg once a day/3 days, day -2, 50 mg/kg

Nc1nc2c(CN3CC(O)C(CO)C3)c[nH]c2c(=O)[nH]1 (centres unmarked) [BCX4945, 4′-deaza-1′-aza-2′-deoxy-1′-(9-methylene)-Immucillin-G]
Mean Platelet Volume [1]: 14.7 fL and 12.2 fL and 11 fL and 10.9 fL and 13.1 fL
Monocytes (%) [1]: 5.1% and 3.6% and 2.9% and 6.5% and 4.2%
Monocytes (x 103/ul) [1]: 0.9 x 103/ul and 0.8 x 103/ul and 0.6 x 103/ul and 0.5 x 103/ul and 0.7 x 103/ul
Platelets [1]: 354000 µL⁻¹ and 250000 µL⁻¹ and 406000 µL⁻¹ and 431000 µL⁻¹ and 270000 µL⁻¹ and 371000 µL⁻¹
Red Cell Distribution Width [1]: 12.5% and 12.2% and 11.4% and 12.4% and 12%
Reticulocytes [1]: 1.9% and 1% and 1.5% and 1.2% and 1.3%
WEIGHT [1]: 680 g and 766 g and 832 g and 849 g and 684 g
Blood Urea Nitrogen [2]: 14.3 mg/dL and 15 mg/dL and 13.15 mg/dL
Creatinine [2]: 0.672 mg/dL and 0.825 mg/dL and 0.587 mg/dL
Erythrocytes [2]: 4.76e+06 µL⁻¹ and 5.14e+06 µL⁻¹ and 3.94e+06 µL⁻¹
Granulocytes (%) [2]: 21.7% and 25.8% and 21.1%
Granulocytes (x 103/ul) [2]: 4.4 x 103/ul and 2.3 x 103/ul and 3.3 x 103/ul
Hematocrit [2]: 38.1% and 39.5% and 32.5%
Hemoglobin [2]: 12.9 g/dL and 13.5 g/dL and 10.8 g/dL
Lymphocytes (%) [2]: 61% and 66.1% and 63.4%
Mean Corpuscular Hemoglobin [2]: 27.1 pg and 26.3 pg and 27.5 pg
Mean Corpuscular Volume [2]: 80.1 fL and 76.8 fL and 82.4 fL
Mean Hemoglobin Content [2]: 33.8 g/dL and 34.2 g/dL and 33.4 g/dL
Mean Platelet Volume [2]: 11 fL and 13.9 fL
Monocytes (%) [2]: 17.3% and 8.1% and 15.5%
Red Cell Distribution Width [2]: 13.3% and 12% and 10.8%
Reticulocytes [2]: 2.5% and 1.1% and 1%
WEIGHT [2]: 851 g and 873 g and 776 g
Blood Urea Nitrogen [3]: 23.05 mg/dL and 23.55 mg/dL and 26.95 mg/dL
Creatinine [3]: 0.563 mg/dL and 0.686 mg/dL and 0.565 mg/dL
Erythrocytes [3]: 4.04e+06 µL⁻¹ and 4.25e+06 µL⁻¹ and 2.77e+06 µL⁻¹
Glutamate Pyruvate Transaminase [3]: 46.7 U/L and 46.1 U/L and 37.8 U/L
Granulocytes (%) [3]: 17.9% and 26.3% and 14.8%
Hematocrit [3]: 33.2% and 32.4% and 22.7%
Hemoglobin [3]: 7.7 g/dL
Leucocytes [3]: 42000 µL⁻¹ and 22200 µL⁻¹ and 22000 µL⁻¹
Lymphocytes (%) [3]: 68.1% and 66.2% and 76.8%
Lymphocytes (x 103/ul) [3]: 28.6 x 103/ul and 14.7 x 103/ul and 16.9 x 103/ul
Mean Corpuscular Hemoglobin [3]: 27.7 pg and 26.4 pg and 27.6 pg
Mean Corpuscular Volume [3]: 82.1 fL and 76.4 fL and 81.9 fL
Mean Hemoglobin Content [3]: 33.7 g/dL and 34.5 g/dL
Mean Platelet Volume [3]: 11.3 fL and 14.6 fL and 11.8 fL
Monocytes (%) [3]: 14% and 7.5% and 8.4%
Red Cell Distribution Width [3]: 13.4% and 11.3%
Reticulocytes [3]: 1.9% and 2% and 2.3%
WEIGHT [3]: 800 g and 804 g and 738 g
Blood Urea Nitrogen [4]: 16.75 mg/dL and 18.3 mg/dL and 27.85 mg/dL
Creatinine [4]: 0.614 mg/dL and 0.695 mg/dL and 0.678 mg/dL
Erythrocytes [4]: 3.94e+06 µL⁻¹ and 4.96e+06 µL⁻¹ and 3.82e+06 µL⁻¹
Granulocytes (%) [4]: 9.6% and 17.6% and 10.1%
Hematocrit [4]: 35.3% and 41.8% and 36.2%
Hemoglobin [4]: 11.5 g/dL and 14 g/dL and 11.6 g/dL
Lymphocytes (%) [4]: 79% and 75.3% and 78.4%
Mean Corpuscular Hemoglobin [4]: 29.3 pg and 28.3 pg and 30.3 pg
Mean Corpuscular Volume [4]: 89.8 fL and 84.2 fL and 94.8 fL
Mean Hemoglobin Content [4]: 32.6 g/dL and 33.6 g/dL and 32 g/dL
Mean Platelet Volume [4]: 12.3 fL and 13.3 fL and 19.7 fL
Monocytes (%) [4]: 11.4% and 11.5%
Monocytes (x 103/ul) [4]: 6.8 x 103/ul and 3.9 x 103/ul
Red Cell Distribution Width [4]: 22.7% and 21.9% and 24.4%
Reticulocytes [4]: 1.7% and 1.6% and 1.8%
WEIGHT [4]: 832 g and 847 g and 757 g
Blood Urea Nitrogen [5]: 24.4 mg/dL and 16 mg/dL and 21 mg/dL
Creatinine [5]: 0.52 mg/dL and 0.578 mg/dL and 0.663 mg/dL
Erythrocytes [5]: 4.62e+06 µL⁻¹ and 4.69e+06 µL⁻¹ and 5.44e+06 µL⁻¹
Glutamate Pyruvate Transaminase [5]: 17.7 U/L and 27.2 U/L
Hematocrit [5]: 40.4% and 41.4% and 44.4%
Hemoglobin [5]: 13.5 g/dL and 14 g/dL and 15.5 g/dL
Leucocytes [5]: 15400 µL⁻¹ and 16400 µL⁻¹ and 15300 µL⁻¹
Lymphocytes (%) [5]: 65.9% and 79.6% and 75.3%
Lymphocytes (x 103/ul) [5]: 10.1 x 103/ul and 13.1 x 103/ul and 11.5 x 103/ul
Mean Corpuscular Hemoglobin [5]: 29.3 pg and 29.8 pg and 28.6 pg
Mean Corpuscular Volume [5]: 87.4 fL and 88.1 fL and 81.7 fL
Mean Hemoglobin Content [5]: 33.5 g/dL and 33.7 g/dL and 35 g/dL
Mean Platelet Volume [5]: 14.1 fL
Monocytes (%) [5]: 7.3% and 7% and 11.7%
Monocytes (x 103/ul) [5]: 1.1 x 103/ul and 1.8 x 103/ul
Red Cell Distribution Width [5]: 19.2% and 20.4% and 17.9%
Reticulocytes [5]: 1.3% and 2.1% and 2%
WEIGHT [5]: 748 g and 818 g and 853 g
Mean Platelet Volume (oral 50 mg/kg once a day/3 days, day -2): 12.8 fL
Blood Urea Nitrogen [6]: 18 mg/dL and 23.05 mg/dL
Creatinine [6]: 0.679 mg/dL and 0.554 mg/dL
Erythrocytes [6]: 7.17e+06 µL⁻¹ and 6.1e+06 µL⁻¹ and 5.2e+06 µL⁻¹
Granulocytes (%) [6]: 33.3% and 31.8% and 22.4%
Hematocrit [6]: 54.4% and 48% and 42.5%
Hemoglobin [6]: 19.3 g/dL and 17 g/dL and 14.7 g/dL
Leucocytes [6]: 16900 µL⁻¹ and 15400 µL⁻¹ and 11300 µL⁻¹
Lymphocytes (%) [6]: 61.5% and 64.5% and 73.1%
Lymphocytes (x 103/ul) [6]: 10.4 x 103/ul and 9.9 x 103/ul and 8.3 x 103/ul
Mean Corpuscular Hemoglobin [6]: 26.8 pg and 27.8 pg and 28.2 pg
Mean Corpuscular Volume [6]: 75.8 fL and 78.6 fL and 81.7 fL
Mean Hemoglobin Content [6]: 35.4 g/dL and 34.6 g/dL
Mean Platelet Volume [6]: 10.2 fL and 10.4 fL
Monocytes (%) [6]: 5.2% and 3.7% and 4.5%
Monocytes (x 103/ul) [6]: 0.9 x 103/ul and 0.6 x 103/ul and 0.5 x 103/ul
Platelets [6]: 463000 µL⁻¹ and 389000 µL⁻¹ and 372000 µL⁻¹
Red Cell Distribution Width [6]: 11.8% and 13.6% and 10.4%
Reticulocytes [6]: 1.8% and 2% and 1.7%
WEIGHT [6]: 804 g and 800 g and 738 g
